Columns and labels:
[1] = target: DNA topoisomerase 2-beta (Homo sapiens) (UniProt Q02880); assay: (§1) Maximal non-effective concentration against bacterial DNA gyrase
Nucleic Acid = assay: as §1; assay type: nucleic-acid assay
[2] = target: Matrix metalloproteinase-9 (Homo sapiens) (UniProt P14780); assay: Inhibition of gelatinase B, matrix metalloprotease-9 (MMP-9) at 5000 uM
Chain of Matrix metalloproteinase-9 (Homo sapiens) (P14780 whole entry): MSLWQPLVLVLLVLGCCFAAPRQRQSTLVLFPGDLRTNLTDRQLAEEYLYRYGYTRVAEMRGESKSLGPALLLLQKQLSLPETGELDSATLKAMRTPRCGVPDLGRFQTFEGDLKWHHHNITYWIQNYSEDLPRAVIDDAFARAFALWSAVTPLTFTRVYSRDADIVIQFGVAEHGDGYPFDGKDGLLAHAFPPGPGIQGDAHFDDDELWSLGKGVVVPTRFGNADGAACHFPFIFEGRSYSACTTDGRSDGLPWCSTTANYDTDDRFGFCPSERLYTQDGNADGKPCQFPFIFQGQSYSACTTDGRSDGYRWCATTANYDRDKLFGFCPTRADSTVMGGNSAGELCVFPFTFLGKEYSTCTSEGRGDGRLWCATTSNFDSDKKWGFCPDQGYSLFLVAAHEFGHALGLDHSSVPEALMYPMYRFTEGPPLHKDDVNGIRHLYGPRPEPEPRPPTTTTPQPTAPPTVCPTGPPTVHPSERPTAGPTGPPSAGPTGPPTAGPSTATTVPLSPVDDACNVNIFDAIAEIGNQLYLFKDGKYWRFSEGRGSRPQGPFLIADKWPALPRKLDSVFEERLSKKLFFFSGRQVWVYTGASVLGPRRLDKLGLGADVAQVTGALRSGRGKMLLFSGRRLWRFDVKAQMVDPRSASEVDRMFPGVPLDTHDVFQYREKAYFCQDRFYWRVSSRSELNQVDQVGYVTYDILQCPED

Chain of DNA topoisomerase 2-beta (Homo sapiens) (Q02880 whole entry): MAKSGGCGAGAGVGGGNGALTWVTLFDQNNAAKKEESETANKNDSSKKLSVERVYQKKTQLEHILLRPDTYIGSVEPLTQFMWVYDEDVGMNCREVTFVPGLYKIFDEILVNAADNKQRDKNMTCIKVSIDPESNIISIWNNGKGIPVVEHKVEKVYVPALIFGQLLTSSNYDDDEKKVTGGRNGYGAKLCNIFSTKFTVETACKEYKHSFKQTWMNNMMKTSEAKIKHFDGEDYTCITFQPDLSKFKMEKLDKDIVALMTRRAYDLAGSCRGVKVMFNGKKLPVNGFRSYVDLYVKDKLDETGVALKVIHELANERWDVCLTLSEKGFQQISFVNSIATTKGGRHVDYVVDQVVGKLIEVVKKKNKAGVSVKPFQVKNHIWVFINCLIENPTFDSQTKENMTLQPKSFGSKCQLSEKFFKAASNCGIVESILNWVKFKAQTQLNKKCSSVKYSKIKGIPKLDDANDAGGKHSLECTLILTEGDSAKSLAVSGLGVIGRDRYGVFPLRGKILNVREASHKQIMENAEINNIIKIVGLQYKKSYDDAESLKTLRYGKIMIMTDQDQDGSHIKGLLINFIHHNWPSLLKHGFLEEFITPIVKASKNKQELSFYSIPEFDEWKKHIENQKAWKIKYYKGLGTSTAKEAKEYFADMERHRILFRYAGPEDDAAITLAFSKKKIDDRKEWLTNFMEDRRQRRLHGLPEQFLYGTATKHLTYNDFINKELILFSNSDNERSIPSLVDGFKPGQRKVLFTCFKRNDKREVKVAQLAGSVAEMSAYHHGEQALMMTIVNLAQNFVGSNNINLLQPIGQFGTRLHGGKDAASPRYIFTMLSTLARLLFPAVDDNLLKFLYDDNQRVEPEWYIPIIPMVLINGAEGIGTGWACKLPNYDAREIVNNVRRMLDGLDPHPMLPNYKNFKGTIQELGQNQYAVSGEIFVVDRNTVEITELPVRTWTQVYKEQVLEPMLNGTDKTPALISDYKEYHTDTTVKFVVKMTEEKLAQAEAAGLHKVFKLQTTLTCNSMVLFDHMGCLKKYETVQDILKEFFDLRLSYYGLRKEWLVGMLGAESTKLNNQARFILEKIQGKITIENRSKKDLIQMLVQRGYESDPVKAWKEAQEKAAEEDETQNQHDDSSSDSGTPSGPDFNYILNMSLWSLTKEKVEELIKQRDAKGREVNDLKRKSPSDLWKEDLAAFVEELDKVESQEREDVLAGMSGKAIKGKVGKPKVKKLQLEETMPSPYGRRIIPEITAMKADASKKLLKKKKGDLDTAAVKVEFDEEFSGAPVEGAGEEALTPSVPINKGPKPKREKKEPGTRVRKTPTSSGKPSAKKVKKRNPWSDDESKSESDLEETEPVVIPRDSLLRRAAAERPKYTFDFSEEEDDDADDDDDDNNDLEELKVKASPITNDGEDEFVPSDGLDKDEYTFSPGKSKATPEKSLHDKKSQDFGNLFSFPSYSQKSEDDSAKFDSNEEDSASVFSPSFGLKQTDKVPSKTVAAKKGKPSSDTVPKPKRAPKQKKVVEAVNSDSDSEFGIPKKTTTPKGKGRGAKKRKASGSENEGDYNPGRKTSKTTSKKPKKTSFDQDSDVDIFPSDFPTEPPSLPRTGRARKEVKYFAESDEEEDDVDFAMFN

MNEC (Nucleic Acid)	SMILES	further results
–	Cc1cc(=O)oc2cc(SCc3n[nH]c4cccc(OCc5ccc(C(C)(C)C)cc5)c34)ccc12	MNEC [1]: 0.062 µM
25 µM	Cc1cc(=O)oc2cc(SCc3n[nH]c4ccccc34)ccc12	–
–	NCc1nc2ccccc2[nH]1	inhibition [2]: 65%
41 µM	c1ccc(-c2[nH]nc3ccccc23)cc1	–

Reference: ChEMBL document CHEMBL1148343, “Fragment-based drug discovery” (J Med Chem, 2004)
